PubChem BioAssay AID1918957 (Molecular Pharmacology Branch, DTP, NCI, 2023)

System: NCI-H1876 complex spheroid viability
Test: Anticancer human tumor NCI-H1876 cell line growth inhibition [LSD1];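 also: spheroids exposed to compounds for one week before readout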;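 as to viability, T/C: 100% = DMSO vehicle-treated spheroids so lower means fewer viable cells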
Settings: for IC50: curve of first compound; for viability, T/C: stronger effect = lower value
Summary of the method: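 Multicellular complex spheroids of tumor cells with human endothelial cells (HUVEC) and mesenchymal stem cells; the LSD1 inhibitor iadademstat was combined with standard-of-care or investigational agents. Top concentration at or near clinical Cmax, half-log dilutions; final DMSO ≤0.25%.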

[1] = second compound 0.1 µM, first compound 0.00949 µM
[2] = second compound 0.1 µM, first compound 0.03 µM
[3] = second compound 0.1 µM, first compound 0.0949 µM
[4] = second compound 0.1 µM, first compound 0.3 µM
[5] = second compound 0.1 µM, first compound 0.949 µM
[6] = second compound 0.1 µM, first compound 3 µM
[7] = second compound 0.316 µM, first compound 0.00949 µM
[8] = second compound 0.316 µM, first compound 0.03 µM
[9] = second compound 0.316 µM, first compound 0.0949 µM
[10] = second compound 0.316 µM, first compound 0.3 µM
[11] = second compound 0.316 µM, first compound 0.949 µM
[12] = second compound 0.316 µM, first compound 3 µM
[13] = second compound 1 µM, first compound 0.00949 µM
[14] = second compound 1 µM, first compound 0.03 µM
[15] = second compound 1 µM, first compound 0.0949 µM
[16] = second compound 1 µM, first compound 0.3 µM
[17] = second compound 1 µM, first compound 0.949 µM
[18] = second compound 1 µM, first compound 3 µM
[19] = second compound 3.16 µM, first compound 0.00949 µM
[20] = second compound 3.16 µM, first compound 0.03 µM
[21] = second compound 3.16 µM, first compound 0.0949 µM
[22] = second compound 3.16 µM, first compound 0.3 µM
[23] = second compound 3.16 µM, first compound 0.949 µM
[24] = second compound 3.16 µM, first compound 3 µM
[25] = second compound 10 µM, first compound 0.00949 µM
[26] = second compound 10 µM, first compound 0.03 µM
[27] = second compound 10 µM, first compound 0.0949 µM
[28] = second compound 10 µM, first compound 0.3 µM
[29] = second compound 10 µM, first compound 0.949 µM
[30] = second compound 10 µM, first compound 3 µM

Q: What does the source list for `NS(=O)(=O)OCC1CC(n2ccc3c(NC4CCc5ccccc54)ncnc32)CC1O` (stereo not given) + NC1CC1c1ccc(-c2cccc(O)c2)cc1?
A: IC50 (second compound 0.1 µM): 84.6 nM; IC50 (second compound 0.316 µM): 94.3 nM; IC50 (second compound 1 µM): 78.2 nM; IC50 (second compound 3.16 µM): 130 nM; IC50 (second compound 10 µM): 187 nM; viability, T/C [1]: 93.3%; viability, T/C [2]: 58%; viability, T/C [3]: 52%; viability, T/C [4]: 45.5%; viability, T/C [5]: 44.5%; viability, T/C [6]: 37.4%; viability, T/C [7]: 82.4%; viability, T/C [8]: 59.1%; viability, T/C [9]: 50.6%; viability, T/C [10]: 45.8%; viability, T/C [11]: 42.8%; viability, T/C [12]: 38.4%; viability, T/C [13]: 86.6%; viability, T/C [14]: 56.8%; viability, T/C [15]: 49.4%; viability, T/C [16]: 47.2%; viability, T/C [17]: 41.3%; viability, T/C [18]: 38.3%; viability, T/C [19]: 91.1%; viability, T/C [20]: 63%; viability, T/C [21]: 53.6%; viability, T/C [22]: 46.7%; viability, T/C [23]: 39.9%; viability, T/C [24]: 36.2%; viability, T/C [25]: 87.2%; viability, T/C [26]: 73.6%; viability, T/C [27]: 55.5%; viability, T/C [28]: 45%; viability, T/C [29]: 38.6%; viability, T/C [30]: 30.9%

Q: `Nc1ccccc1NC(=O)c1ccc(CNC(=O)OCc2cccnc2)cc1` + NC1CC1c1ccc(-c2cccc(O)c2)cc1 was tested. Which IC50 (second compound 0.1 µM) did it give?
A: 81 nM

Q: And the IC50 (second compound 0.316 µM)?
A: 66.8 nM

Q: What about the IC50 (second compound 1 µM) of the same compound?
A: 61.5 nM

Q: What about the IC50 (second compound 3.16 µM) of the same compound?
A: 65.2 nM

Q: What about the IC50 (second compound 10 µM) of the same compound?
A: 68.2 nM

Q: And the viability, T/C [1]?
A: 91.1%

Q: And the viability, T/C [2]?
A: 88.8%

Q: What about the viability, T/C [3] of the same compound?
A: 43.1%

Q: What about the viability, T/C [4] of the same compound?
A: 9.94%

Q: And the viability, T/C [5]?
A: 2.94%

Q: And the viability, T/C [6]?
A: 0.49%

Q: And the viability, T/C [7]?
A: 83.6%

Q: And the viability, T/C [8]?
A: 71.9%

Q: And the viability, T/C [9]?
A: 40.9%

Q: And the viability, T/C [10]?
A: 9.16%

Q: And the viability, T/C [11]?
A: 3.03%

Q: What about the viability, T/C [12] of the same compound?
A: 0.41%

Q: And the viability, T/C [13]?
A: 85.1%

Q: And the viability, T/C [14]?
A: 75.5%

Q: And the viability, T/C [15]?
A: 34.4%

Q: What about the viability, T/C [16] of the same compound?
A: 8.61%

Q: And the viability, T/C [17]?
A: 2.73%

Q: What about the viability, T/C [18] of the same compound?
A: 0.38%

Q: What about the viability, T/C [19] of the same compound?
A: 84.6%

Q: What about the viability, T/C [20] of the same compound?
A: 76%

Q: And the viability, T/C [21]?
A: 37.3%

Q: What about the viability, T/C [22] of the same compound?
A: 8.61%

Q: And the viability, T/C [23]?
A: 2.69%

Q: And the viability, T/C [24]?
A: 0.45%

Q: What about the viability, T/C [25] of the same compound?
A: 78.6%

Q: And the viability, T/C [26]?
A: 70.5%

Q: What about the viability, T/C [27] of the same compound?
A: 41.5%

Q: And the viability, T/C [28]?
A: 13.3%

Q: And the viability, T/C [29]?
A: 2.64%

Q: And the viability, T/C [30]?
A: 0.52%

Q: `O=C(C=Cc1cccc(S(=O)(=O)Nc2ccccc2)c1)NO` + NC1CC1c1ccc(-c2cccc(O)c2)cc1 was tested. Which IC50 (second compound 0.1 µM) did it give?
A: 165 nM

Q: What about the IC50 (second compound 0.316 µM) of the same compound?
A: 165 nM

Q: What about the IC50 (second compound 1 µM) of the same compound?
A: 171 nM

Q: What about the IC50 (second compound 3.16 µM) of the same compound?
A: 178 nM

Q: What about the IC50 (second compound 10 µM) of the same compound?
A: 157 nM

Q: What about the viability, T/C [1] of the same compound?
A: 110%

Q: What about the viability, T/C [2] of the same compound?
A: 111%

Q: And the viability, T/C [3]?
A: 81.1%

Q: And the viability, T/C [4]?
A: 16.3%

Q: And the viability, T/C [5]?
A: 6.97%

Q: What about the viability, T/C [6] of the same compound?
A: 0.3%

Q: And the viability, T/C [7]?
A: 107%

Q: What about the viability, T/C [8] of the same compound?
A: 115%

Q: And the viability, T/C [9]?
A: 80.4%

Q: What about the viability, T/C [10] of the same compound?
A: 16.8%

Q: And the viability, T/C [11]?
A: 5.12%

Q: What about the viability, T/C [12] of the same compound?
A: 0.27%

Q: And the viability, T/C [13]?
A: 114%

Q: And the viability, T/C [14]?
A: 109%

Q: And the viability, T/C [15]?
A: 85.6%

Q: And the viability, T/C [16]?
A: 15.9%

Q: And the viability, T/C [17]?
A: 5.57%

Q: What about the viability, T/C [18] of the same compound?
A: 0.28%

Q: And the viability, T/C [19]?
A: 111%

Q: And the viability, T/C [20]?
A: 111%

Q: And the viability, T/C [21]?
A: 87.8%

Q: What about the viability, T/C [22] of the same compound?
A: 18.4%

Q: And the viability, T/C [23]?
A: 5.71%

Q: What about the viability, T/C [24] of the same compound?
A: 0.36%

Q: And the viability, T/C [25]?
A: 108%

Q: What about the viability, T/C [26] of the same compound?
A: 102%

Q: And the viability, T/C [27]?
A: 71.7%

Q: And the viability, T/C [28]?
A: 21.7%

Q: And the viability, T/C [29]?
A: 5.51%

Q: And the viability, T/C [30]?
A: 0.42%
